Assays:
Type in all cases: in vivo
Settings in all cases: 21 days, scale 0 to 100
[1] = test system: wild radish (Raphanus raphanistrum); assay: Test C preemergence, wild radish
Excerpt: (§1) Seeds of plant species selected from annual bluegrass (Poa annua), blackgrass (Alopecurus myosuroides), canarygrass (Phalaris minor), gallium, (catchweed bedstraw, Galium aparine), chickweed (Stellaria media), downy bromegrass (Bromus tectorum), field poppy (Papaver rhoeas), field violet (Viola arvensis), green foxtail (Setaria viridis), deadnettle (henbit deadnettle, Lamium amplexicaule), Italian ryegrass (Lolium multiflorum), kochia (Kochia scoparia), lambsquarters (Chenopodium album), oilseed rape (Brassica napus), pigweed (Amaranthus retroflexus), Russian thistle (Salsola kali), spring barley (Hordeum vulgare), spring wheat (Triticum aestivum), wild buckwheat (Polygonum convolvulus), wild mustard (Sinapis arvensis), wild oat (Avena fatua), wild radish (Raphanus raphanistrum), windgrass (Apera spica-venti), winter barley (Hordeum vulgare), and winter wheat (Triticum aestivum) were planted and treated preemergence with test chemicals formulated in a non-phytotoxic solvent mixture which included a surfactant.
(§2) Treated plants and controls were maintained in a controlled growth environment for 21 days after which time all species were compared to controls and visually evaluated. Plant response ratings, summarized in Table C, are based on a scale of 0 to 100 where 0 is no effect and 100 is complete control. A dash (-) response means no test result.

[2] = test system: oilseed rape (Brassica napus); assay: Test C preemergence, oilseed rape
Excerpt: as §1, §2

[3] = test system: spring wheat (Triticum aestivum); assay: Test C preemergence, spring wheat
Excerpt: as §1, §2

wild oat (Avena fatua) = assay: Test C preemergence, wild oat
Excerpt: as §1, §2

[4] = test system: winter barley (Hordeum vulgare); assay: Test C preemergence, winter barley
Excerpt: as §1, §2

[5] = test system: Italian ryegrass (Lolium multiflorum); assay: Test C preemergence, Italian ryegrass
Excerpt: as §1, §2

kochia (Kochia scoparia) = assay: Test C preemergence, kochia
Excerpt: as §1, §2

[6] = test system: wild buckwheat (Polygonum convolvulus); assay: Test C preemergence, wild buckwheat
Excerpt: as §1, §2

[7] = test system: windgrass (Apera spica-venti); assay: Test C preemergence, windgrass
Excerpt: as §1, §2

[8] = test system: downy bromegrass (Bromus tectorum); assay: Test C preemergence, downy bromegrass
Excerpt: as §1, §2

[9] = test system: spring barley (Hordeum vulgare); assay: Test C preemergence, spring barley
Excerpt: as §1, §2

[10] = test system: Russian thistle (Salsola kali); assay: Test C preemergence, Russian thistle
Excerpt: as §1, §2

[11] = test system: lambsquarters (Chenopodium album); assay: Test C preemergence, lambsquarters
Excerpt: as §1, §2

[12] = test system: field violet (Viola arvensis); assay: Test C preemergence, field violet
Excerpt: as §1, §2

[13] = test system: gallium, (catchweed bedstraw, Galium aparine); assay: Test C preemergence, galium
Excerpt: as §1, §2

[14] = test system: deadnettle (henbit deadnettle, Lamium amplexicaule); assay: Test C preemergence, deadnettle
Excerpt: as §1, §2

[15] = test system: annual bluegrass (Poa annua); assay: Test C preemergence, annual bluegrass
Excerpt: as §1, §2

CC1(C)CC(S(=O)(=O)Cc2c(C(F)(F)F)nc3n(c2=O)CCS3)=NO1 [Compound 6]
20: Plant response rating, Oat, Wild (wild oat (Avena fatua); 31 g ai/ha) | Plant response rating, Barley, Winter ([4]; 250 g ai/ha) | Plant response rating, Windgrass ([7]; 125 g ai/ha) | Plant response rating, Barley, Spring ([9]; 31 g ai/ha) | Plant response rating, Barley, Spring ([9]; 62 g ai/ha) | Plant response rating, Barley, Spring ([9]; 125 g ai/ha) | Plant response rating, Barley, Spring ([9]; 250 g ai/ha) | Plant response rating, Bluegrass ([15]; 31 g ai/ha) | Plant response rating, Bluegrass ([15]; 62 g ai/ha) | Plant response rating, Bluegrass ([15]; 125 g ai/ha)
0: Plant response rating, Radish, Wild ([1]; 31 g ai/ha) | Plant response rating, Radish, Wild ([1]; 62 g ai/ha) | Plant response rating, Radish, Wild ([1]; 125 g ai/ha) | Plant response rating, Radish, Wild ([1]; 250 g ai/ha) | Plant response rating, Oilseed Rape ([2]; 31 g ai/ha) | Plant response rating, Oilseed Rape ([2]; 62 g ai/ha) | Plant response rating, Oilseed Rape ([2]; 125 g ai/ha) | Plant response rating, Oilseed Rape ([2]; 250 g ai/ha) | Plant response rating, Wheat, Spring ([3]; 31 g ai/ha) | Plant response rating, Wheat, Spring ([3]; 62 g ai/ha) | Plant response rating, Wheat, Spring ([3]; 125 g ai/ha) | Plant response rating, Barley, Winter ([4]; 31 g ai/ha) | Plant response rating, Barley, Winter ([4]; 62 g ai/ha) | Plant response rating, Ryegrass, Italian ([5]; 31 g ai/ha) | Plant response rating, Kochia (kochia (Kochia scoparia); 31 g ai/ha) | Plant response rating, Kochia (kochia (Kochia scoparia); 62 g ai/ha) | Plant response rating, Kochia (kochia (Kochia scoparia); 125 g ai/ha) | Plant response rating, Kochia (kochia (Kochia scoparia); 250 g ai/ha) | Plant response rating, Buckwheat, Wild ([6]; 31 g ai/ha) | Plant response rating, Buckwheat, Wild ([6]; 62 g ai/ha) | Plant response rating, Buckwheat, Wild ([6]; 125 g ai/ha) | Plant response rating, Buckwheat, Wild ([6]; 250 g ai/ha) | Plant response rating, Bromegrass, Downy ([8]; 31 g ai/ha) | Plant response rating, Bromegrass, Downy ([8]; 62 g ai/ha) | Plant response rating, Russian Thistle ([10]; 31 g ai/ha) | Plant response rating, Russian Thistle ([10]; 62 g ai/ha) | Plant response rating, Russian Thistle ([10]; 125 g ai/ha) | Plant response rating, Lambsquarters ([11]; 31 g ai/ha) | Plant response rating, Lambsquarters ([11]; 62 g ai/ha) | Plant response rating, Lambsquarters ([11]; 125 g ai/ha) | Plant response rating, Field Violet ([12]; 31 g ai/ha) | Plant response rating, Field Violet ([12]; 62 g ai/ha) | Plant response rating, Field Violet ([12]; 125 g ai/ha) | Plant response rating, Field Violet ([12]; 250 g ai/ha) | Plant response rating, Galium ([13]; 31 g ai/ha) | Plant response rating, Galium ([13]; 62 g ai/ha) | Plant response rating, Galium ([13]; 125 g ai/ha) | Plant response rating, Galium ([13]; 250 g ai/ha) | Plant response rating, Deadnettle ([14]; 31 g ai/ha) | Plant response rating, Deadnettle ([14]; 62 g ai/ha) | Plant response rating, Deadnettle ([14]; 125 g ai/ha) | Plant response rating, Deadnettle ([14]; 250 g ai/ha)
35: Plant response rating, Bromegrass, Downy ([8]; 250 g ai/ha) | Plant response rating, Lambsquarters ([11]; 250 g ai/ha)
30: Plant response rating, Oat, Wild (wild oat (Avena fatua); 250 g ai/ha)
15: Plant response rating, Wheat, Spring ([3]; 250 g ai/ha) | Plant response rating, Barley, Winter ([4]; 125 g ai/ha) | Plant response rating, Ryegrass, Italian ([5]; 62 g ai/ha) | Plant response rating, Ryegrass, Italian ([5]; 125 g ai/ha)
90: Plant response rating, Bluegrass ([15]; 250 g ai/ha)
25: Plant response rating, Oat, Wild (wild oat (Avena fatua); 62 g ai/ha) | Plant response rating, Oat, Wild (wild oat (Avena fatua); 125 g ai/ha) | Plant response rating, Bromegrass, Downy ([8]; 125 g ai/ha)
95: Plant response rating, Ryegrass, Italian ([5]; 250 g ai/ha)

CC1(C)CC(S(=O)(=O)Cc2c(C(F)(F)F)nc3n(c2=O)CCCC3)=NO1 [Compound 8, 3-[[(4,5-dihydro-5,5-dimethyl-3-isoxazolyl)sulfonyl]methyl]-6,7,8,9-tetrahydro-2-(trifluoromethyl)-4H-pyrido[1,2-α]pyrimidin-4-one]
0: Plant response rating, Oilseed Rape ([2]; 16 g ai/ha) | Plant response rating, Oilseed Rape ([2]; 31 g ai/ha) | Plant response rating, Oilseed Rape ([2]; 62 g ai/ha) | Plant response rating, Oilseed Rape ([2]; 125 g ai/ha) | Plant response rating, Wheat, Spring ([3]; 16 g ai/ha) | Plant response rating, Wheat, Spring ([3]; 31 g ai/ha) | Plant response rating, Wheat, Spring ([3]; 62 g ai/ha) | Plant response rating, Wheat, Spring ([3]; 125 g ai/ha) | Plant response rating, Oat, Wild (wild oat (Avena fatua); 16 g ai/ha) | Plant response rating, Oat, Wild (wild oat (Avena fatua); 31 g ai/ha) | Plant response rating, Oat, Wild (wild oat (Avena fatua); 62 g ai/ha) | Plant response rating, Oat, Wild (wild oat (Avena fatua); 125 g ai/ha) | Plant response rating, Barley, Winter ([4]; 16 g ai/ha) | Plant response rating, Barley, Winter ([4]; 31 g ai/ha) | Plant response rating, Barley, Winter ([4]; 62 g ai/ha) | Plant response rating, Barley, Winter ([4]; 125 g ai/ha) | Plant response rating, Ryegrass, Italian ([5]; 16 g ai/ha) | Plant response rating, Ryegrass, Italian ([5]; 31 g ai/ha) | Plant response rating, Ryegrass, Italian ([5]; 62 g ai/ha) | Plant response rating, Ryegrass, Italian ([5]; 125 g ai/ha) | Plant response rating, Kochia (kochia (Kochia scoparia); 16 g ai/ha) | Plant response rating, Kochia (kochia (Kochia scoparia); 31 g ai/ha) | Plant response rating, Kochia (kochia (Kochia scoparia); 62 g ai/ha) | Plant response rating, Kochia (kochia (Kochia scoparia); 125 g ai/ha) | Plant response rating, Buckwheat, Wild ([6]; 16 g ai/ha) | Plant response rating, Buckwheat, Wild ([6]; 31 g ai/ha) | Plant response rating, Buckwheat, Wild ([6]; 62 g ai/ha) | Plant response rating, Windgrass ([7]; 16 g ai/ha) | Plant response rating, Windgrass ([7]; 31 g ai/ha) | Plant response rating, Bromegrass, Downy ([8]; 16 g ai/ha) | Plant response rating, Bromegrass, Downy ([8]; 31 g ai/ha) | Plant response rating, Bromegrass, Downy ([8]; 62 g ai/ha) | Plant response rating, Bromegrass, Downy ([8]; 125 g ai/ha) | Plant response rating, Barley, Spring ([9]; 16 g ai/ha) | Plant response rating, Barley, Spring ([9]; 31 g ai/ha) | Plant response rating, Barley, Spring ([9]; 62 g ai/ha) | Plant response rating, Barley, Spring ([9]; 125 g ai/ha) | Plant response rating, Russian Thistle ([10]; 16 g ai/ha) | Plant response rating, Russian Thistle ([10]; 31 g ai/ha) | Plant response rating, Russian Thistle ([10]; 62 g ai/ha) | Plant response rating, Russian Thistle ([10]; 125 g ai/ha) | Plant response rating, Lambsquarters ([11]; 16 g ai/ha) | Plant response rating, Lambsquarters ([11]; 31 g ai/ha) | Plant response rating, Lambsquarters ([11]; 62 g ai/ha) | Plant response rating, Lambsquarters ([11]; 125 g ai/ha) | Plant response rating, Field Violet ([12]; 16 g ai/ha) | Plant response rating, Field Violet ([12]; 31 g ai/ha) | Plant response rating, Field Violet ([12]; 62 g ai/ha) | Plant response rating, Galium ([13]; 16 g ai/ha) | Plant response rating, Galium ([13]; 31 g ai/ha) | Plant response rating, Galium ([13]; 62 g ai/ha) | Plant response rating, Galium ([13]; 125 g ai/ha) | Plant response rating, Deadnettle ([14]; 16 g ai/ha) | Plant response rating, Deadnettle ([14]; 31 g ai/ha) | Plant response rating, Deadnettle ([14]; 62 g ai/ha) | Plant response rating, Deadnettle ([14]; 125 g ai/ha) | Plant response rating, Bluegrass ([15]; 16 g ai/ha) | Plant response rating, Bluegrass ([15]; 31 g ai/ha) | Plant response rating, Bluegrass ([15]; 62 g ai/ha) | Plant response rating, Bluegrass ([15]; 125 g ai/ha)
90: Plant response rating, Windgrass ([7]; 125 g ai/ha) | Plant response rating, Field Violet ([12]; 125 g ai/ha)
35: Plant response rating, Windgrass ([7]; 62 g ai/ha)

From patent US20100099561A1, “HETEROBICYCLIC ALKYLTHIO-BRIDGED ISOXAZOLINES” (E.I. DU PONT DE NEMOURS AND COMPANY, priority 2008, published 2010)
